The structures appear in SMILES notation. pIC50: −log10 of the molar value.

As a reminder, the pIC50 is the IC50 on a negative log10 scale, so that one unit is a factor of ten.

Assay [1] deals with T1, FAK (Homo sapiens, UniProt Q05397). Description: Cell-based capture ELISA for inhibition of FAK autophosphorylation [pY397] in MiaPaCa2 cells. As to conditions: MIA-PaCa2 cells, + 50% mouse plasma (Table 3); read-out: Mean FAK Cell Mechanistic IC50 + 50% mP MIA-PaCa2. The method, then: Cell-Based Assays for Inhibition of FAK Autophosphorylation: MiaPaCa2 and U87MG
T1 sequence (Q05397 whole entry): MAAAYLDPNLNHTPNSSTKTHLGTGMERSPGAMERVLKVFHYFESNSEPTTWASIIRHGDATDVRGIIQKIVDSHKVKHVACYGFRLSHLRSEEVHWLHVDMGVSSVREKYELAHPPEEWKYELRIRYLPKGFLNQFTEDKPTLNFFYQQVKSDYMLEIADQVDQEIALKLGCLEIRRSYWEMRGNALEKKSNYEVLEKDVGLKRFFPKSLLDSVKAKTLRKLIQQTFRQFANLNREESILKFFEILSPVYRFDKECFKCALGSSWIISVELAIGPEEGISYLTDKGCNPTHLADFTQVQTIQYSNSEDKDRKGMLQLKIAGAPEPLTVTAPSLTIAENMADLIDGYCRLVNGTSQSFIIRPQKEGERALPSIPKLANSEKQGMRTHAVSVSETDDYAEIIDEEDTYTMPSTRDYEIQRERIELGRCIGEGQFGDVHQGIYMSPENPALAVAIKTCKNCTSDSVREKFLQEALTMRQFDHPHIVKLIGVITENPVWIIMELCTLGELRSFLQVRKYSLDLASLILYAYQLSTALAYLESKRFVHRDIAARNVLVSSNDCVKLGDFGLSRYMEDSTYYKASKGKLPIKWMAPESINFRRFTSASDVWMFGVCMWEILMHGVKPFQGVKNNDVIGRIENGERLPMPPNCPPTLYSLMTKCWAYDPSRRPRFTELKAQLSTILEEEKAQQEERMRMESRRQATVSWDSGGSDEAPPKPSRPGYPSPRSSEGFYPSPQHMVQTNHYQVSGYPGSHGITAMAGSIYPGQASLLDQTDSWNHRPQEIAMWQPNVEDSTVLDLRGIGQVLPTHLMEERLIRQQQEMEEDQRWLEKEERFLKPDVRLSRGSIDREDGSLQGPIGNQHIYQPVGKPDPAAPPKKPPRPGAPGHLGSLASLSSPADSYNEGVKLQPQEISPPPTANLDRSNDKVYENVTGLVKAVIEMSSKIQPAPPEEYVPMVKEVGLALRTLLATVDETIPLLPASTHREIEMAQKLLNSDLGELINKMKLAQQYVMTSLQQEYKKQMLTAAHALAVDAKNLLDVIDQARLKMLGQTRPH
ELISA kit from Invitrogen (KHO0441).
Reagents Provided in Biosource FAK [pY397]
The cells were then suspended in cell assay medium.
On the technique in general: An ELISA detects its analyte on a solid surface through an enzyme-linked reagent.

Assay [2] has as its target T1, FAK. Nature of the assay: biochemical.

For `CCOP(=O)(Cc1ccc(Nc2ncc(C(F)(F)F)c(Nc3ccc(-c4ccn(CCO)n4)c4c3C(=O)N(C)C4)n2)cc1)OCC` [Example 142, Diethyl (4-{[4-({7-[1-(2-hydroxyethyl)-1H-pyrazol-3-yl]-2-methyl-3-oxo-2,3-dihydro-1H-isoindol-4-yl}amino)-5-(trifluoromethyl)pyrimidin-2-yl]amino}benzyl)phosphonate], the negative logarithm of the IC50 (pIC50) on FAK [1] and against FAK [2] was greater than 6.00 in each case.
Regarding `CCOP(=O)(O)Cc1ccc(Nc2ncc(C(F)(F)F)c(Nc3ccccc3C(=O)NC)n2)c(OC)c1` [Example 143, Ethyl hydrogen (3-methoxy-4-{[4-{[2-(methylcarbamoyl)phenyl]amino}-5-(trifluoromethyl)pyrimidin-2-yl]amino}benzyl)phosphonate], the pIC50 on FAK [1] and at FAK [2] was greater than 6.00 throughout.
For `CCOP(=O)(Cc1ccc(Nc2ncc(C(F)(F)F)c(Nc3cccc4c3C(=O)N(C)C4(C)C)n2)c(OC)c1)OCC` [Example 148, Diethyl [3-methoxy-4-({5-(trifluoromethyl)-4-[(1,1,2-trimethyl-3-oxo-2,3-dihydro-1H-isoindol-4-yl)amino]pyrimidin-2-yl}amino)benzyl]phosphonate], the pIC50 at FAK [1] is 5.00 to 6.00; at FAK [2] it was greater than 6.00.
Taken in the same sequence, the figures for `CCOP(=O)(Cc1ccc(Nc2ncc(C(F)(F)F)c(Nc3cccc4c3C(=O)N(C)C4(C)C)n2)cc1)OCC` [Example 149, Diethyl [4-({5-(trifluoromethyl)-4-[(1,1,2-trimethyl-3-oxo-2,3-dihydro-1H-isoindol-4-yl)amino]pyrimidin-2-yl}amino)benzyl]phosphonate] were 5.00 to 6.00 and greater than 6.00.
On to `CCOP(=O)(Cc1ccc(Nc2ncc(C(F)(F)F)c(Nc3ccc(C#N)cc3C(=O)NC)n2)c(OC)c1)OCC` [Example 151, Diethyl (4-{[4-{[4-cyano-2-(methylcarbamoyl)phenyl]amino}-5-(trifluoromethyl)pyrimidin-2-yl]amino}-3-methoxybenzyl)phosphonate], for which the pIC50 at FAK [1] and against FAK [2] was greater than 6.00 in each case.
Regarding `CCOP(=O)(Cc1ccc(Nc2ncc(C(F)(F)F)c(Nc3ccc(-c4cnn([C@H]5CC[C@H](O)CC5)c4)c4c3C(=O)N(C)C4)n2)cc1)OCC` [Example 164, Diethyl (4-{[4-({7-[1-(trans-4-hydroxycyclohexyl)-1H-pyrazol-4-yl]-2-methyl-3-oxo-2,3-dihydro-1H-isoindol-4-yl}amino)-5-(trifluoromethyl)pyrimidin-2-yl]amino}benzyl) phosphonate], the pIC50 on FAK [1] and at FAK [2] was greater than 6.00 each time.
As for `CN1Cc2c(c(Nc3nc(Nc4ccc(CP(=O)(OCC(F)(F)F)OCC(F)(F)F)cc4)ncc3C(F)(F)F)ccc2[C@H]2CC[C@H](O)CC2)C1=O` [Example 165, Bis(2,2,2-trifluoroethyl) (4-{[4-{[7-(trans-4-hydroxycyclohexyl)-2-methyl-3-oxo-2,3-dihydro-1H-isoindol-4-yl]amino}-5-(trifluoromethyl)pyrimidin-2-yl]amino}benzyl)phosphonate], the pIC50 on FAK [1] and at FAK [2] was greater than 6.00 in each case.
Turning to `CCOP(=O)(Cc1ccc(Nc2ncc(C(F)(F)F)c(Nc3ccc([C@H]4CC[C@@H](OCC)CC4)c4c3C(=O)N(C)C4)n2)cc1)OCC` [Example 166, Diethyl (4-{[4-{[7-(cis-4-ethoxycyclohexyl)-2-methyl-3-oxo-2,3-dihydro-1H-isoindol-4-yl]amino}-5-(trifluoromethyl)pyrimidin-2-yl]amino}benzyl)phosphonate], the pIC50 on FAK [1] and at FAK [2] was greater than 6.00 each time.
In the case of `CCOP(=O)(Cc1ccc(Nc2ncc(C(F)(F)F)c(Nc3ccc([C@H]4CC[C@@H](OCC)CC4)c4c3C(=O)N(C)C4)n2)c(OC)c1)OCC` [Example 167, Diethyl (4-{[4-{[7-(cis-4-ethoxycyclohexyl)-2-methyl-3-oxo-2,3-dihydro-1H-isoindol-4-yl]amino}-5-(trifluoromethyl)pyrimidin-2-yl]amino}-3-methoxybenzyl) phosphonate], the pIC50 at FAK [1] and against FAK [2] was greater than 6.00 throughout.
Regarding `CCCP(=O)(CCC)c1cccc(Nc2ncc(C(F)(F)F)c(Nc3ccc(-c4cnn(CCO)c4)c4c3C(=O)N(C)C4)n2)c1` [Example 168, 7-{[2-{[3-(Dipropylphosphoryl)phenyl]amino}-5-(trifluoromethyl)pyrimidin-4-yl]amino}-4-[1-(3-hydroxyethyl)-1H-pyrazol-4-yl]-2-methyl-2,3-dihydro-1H-isoindol-1-one], the negative logarithm of the IC50 (pIC50) at FAK [1] and at FAK [2] was greater than 6.00 throughout.
Regarding `CCOP(=O)(Cc1ccc(Nc2ncc(C(F)(F)F)c(Nc3ccc([C@H]4CC[C@H](OCC)CC4)c4c3C(=O)N(C)C4)n2)cc1)OCC` [Example 169, Diethyl (4-{[4-{[7-(trans-4-ethoxycyclohexyl)-2-methyl-3-oxo-2,3-dihydro-1H-isoindol-4-yl]amino}-5-(trifluoromethyl)pyrimidin-2-yl]amino}benzyl)phosphonate], the pIC50 at FAK [1] and against FAK [2] was greater than 6.00 throughout.
With `CCOP(=O)(OCC)C(F)c1ccc(Nc2ncc(C(F)(F)F)c(Nc3ccccc3C(=O)NC)n2)cc1` (centres unmarked) [Example 172, Diethyl [fluoro(4-{[4-{[2-(methylcarbamoyl)phenyl]amino}-5-(trifluoromethyl)pyrimidin-2-yl]amino}phenyl)methyl]phosphonate], the pIC50 at FAK [1] and against FAK [2] was greater than 6.00 each time.
As to `CCOP(C)(=O)Cc1ccc(Nc2ncc(C(F)(F)F)c(Nc3ccc([C@H]4CC[C@H](O)CC4)c4c3C(=O)N(C)C4)n2)cc1` (stereo partly drawn) [Example 174, Ethyl (4-{[4-{[7-(trans-4-hydroxycyclohexyl)-2-methyl-3-oxo-2,3-dihydro-1H-isoindol-4-yl]amino}-5-(trifluoromethyl)pyrimidin-2-yl]amino}benzyl) methylphosphinate], the pIC50 at FAK [1] and against FAK [2] was greater than 6.00 each time.
Regarding `CCOP(=O)(Cc1ccc(Nc2ncc(C(F)(F)F)c(Nc3ccc(-c4cnn(CCN(CC)CC)c4)c4c3C(=O)N(C)C4)n2)cc1)OCC` [Example 175, Diethyl [4-({4-[(7-{1-[2-(diethylamino)ethyl]-1H-pyrazol-4-yl}-2-methyl-3-oxo-2,3-dihydro-1H-isoindol-4-yl)amino]-5-(trifluoromethyl)pyrimidin-2-yl}amino)benzyl]phosphonate], the pIC50 on FAK [1] and against FAK [2] was greater than 6.00 throughout.
For `CCOP(=O)(Cc1ccc(Nc2ncc(C(F)(F)F)c(Nc3ccccc3C(=O)N3CCCC3)n2)cc1)OCC` [Example 176, Diethyl (4-{[4-{[2-(pyrrolidin-1-ylcarbonyl)phenyl]amino}-5-(trifluoromethyl)pyrimidin-2-yl]amino}benzyl)phosphonate], the results for the pIC50 at FAK [1] and on FAK [2] were 5.00 to 6.00 and greater than 6.00, respectively.
With `CCOP(=O)(O)Cc1ccc(Nc2ncc(C(F)(F)F)c(Nc3ccc(-c4cnn(CCCO)c4)c4c3C(=O)N(C)C4)n2)cc1` [Example 182, Sodium ethyl (4-{[4-({7-[1-(3-hydroxypropyl)-1H-pyrazol-4-yl]-2-methyl-3-oxo-2,3-dihydro-1H-isoindol-4-yl}amino)-5-(trifluoromethyl)pyrimidin-2-yl]amino}benzyl)phosphonate], the pIC50 at FAK [1] is 5.00 to 6.00; at FAK [2] it was greater than 6.00.
As to `CCOP(=O)(Cc1ccc(Nc2ncc(C(F)(F)F)c(Nc3ccc([C@H]4CC[C@](C)(O)CC4)c4c3C(=O)N(C)C4)n2)cc1)OCC` [Example 183, Diethyl (4-{[4-{[7-(trans-4-hydroxy-4-methylcyclohexyl)-2-methyl-3-oxo-2,3-dihydro-1H-isoindol-4-yl]amino}-5-(trifluoromethyl)pyrimidin-2-yl]amino}benzyl)phosphonate], the pIC50 at FAK [1] and against FAK [2] was greater than 6.00 throughout.
On to `CCOP(=O)(Cc1ccc(Nc2ncc(C(F)(F)F)c(Nc3ccc([C@H]4CC[C@@](C)(O)CC4)c4c3C(=O)N(C)C4)n2)cc1)OCC` [Example 184, Diethyl (4-{[4-{[7-(cis-4-hydroxy-4-methylcyclohexyl)-2-methyl-3-oxo-2,3-dihydro-1H-isoindol-4-yl]amino}-5-(trifluoromethyl)pyrimidin-2-yl]amino}benzyl) phosphonate], for which the pIC50 at FAK [1] and at FAK [2] was greater than 6.00 in each case.
`CNC(=O)c1ccccc1Nc1nc(Nc2ccc(CP(=O)(OCCOC)OCCOC)cc2)ncc1C(F)(F)F` [Example 185, Bis(2-methoxyethyl) (4-{[4-{[2-(methylcarbamoyl)phenyl]amino}-5-(trifluoromethyl)pyrimidin-2-yl]amino}benzyl)phosphonate]: the pIC50 at FAK [1] and at FAK [2] was greater than 6.00 in each case.
`CCOP(=O)(OCC)C(F)(F)c1ccc(Nc2ncc(C(F)(F)F)c(Nc3ccccc3C(=O)NC)n2)cc1` [Example 188, Diethyl [difluoro(4-{[4-{[2-(methylcarbamoyl)phenyl]amino}-5-(trifluoromethyl)-pyrimidin-2-yl]amino}phenyl)methyl]phosphonate]: the pIC50 on FAK [1] and at FAK [2] was greater than 6.00 each time.
With `COCCOP(=O)(Cc1ccc(Nc2ncc(C(F)(F)F)c(Nc3ccc([C@H]4CC[C@H](O)CC4)c4c3C(=O)N(C)C4)n2)cc1)OCCOC` [Example 189, Bis(2-methoxyethyl) (4-{[4-{[7-(trans-4-hydroxycyclohexyl)-2-methyl-3-oxo-2,3-dihydro-1H-isoindol-4-yl]amino}-5-(trifluoromethyl)pyrimidin-2-yl]amino}benzyl)phosphonate], the pIC50 at FAK [1] and against FAK [2] was greater than 6.00 throughout.
Take `CCOP(=O)(Cc1ccc(Nc2ncc(C(F)(F)F)c(Nc3ccccc3C(N)=O)n2)c(OC)c1)OCC` [Example 190, Diethyl [4-({4-[(2-carbamoylphenyl)amino]-5-(trifluoromethyl)pyrimidin-2-yl}amino)-3-methoxybenzyl]phosphonate]: the pIC50 on FAK [1] and on FAK [2] was greater than 6.00 throughout.

The record behind these values is patent US9096624B2 (OSI Pharmaceuticals, LLC, priority 2009, dated 2015).
